{"source": "patent US6939860B2", "about": "“Composition and method for treatment of neoplastic diseases associated with elevated matrix metalloproteinase activities using catechin compounds” (priority 2002, dated 2005)", "key": {"[1]": {"tested_on": "Human breast cancer cells (MDA MB 231)", "assay": "Matrigel invasion assay, breast cancer cells", "type": "cell-based", "details": "EGCG 50 μg/ml alone, MDA MB 231, 18 hours", "method": "The Matrigel Invasion studies were conducted using Matrigel (Becton Dickinson) inserts in compatible 24 well plates. This assay is a reliable assay for evaluating cancer metastasis.\nHuman fibroblast cells were seeded and grown in the 24-well plates using culture media containing ˜10% serum. When the fibroblasts reached coalescence, the culture media with serum was withdrawn and replaced with fresh media without serum. A combination of catechin compounds plus dietary composition were added to the media without serum and human cancer cells were seeded on the upper surface of the Matrigel inserts.\nAfter 18 hours, the media were withdrawn. Some media were saved for zymogram studies. The cells on the upper surface of the inserts were gently scrubbed away with cotton swab. The cells that had penetrated the Matrigel membrane and had migrated into the lower surface of the Matrigel were stained with Quick Stain and were counted under a microscope.\nThe general procedure for Matrigel Invasion Assay has been described above. In this assay, human breast cancer cells (5×10^4) were seeded on each insert. Various supplements were added to Leibovitz's media. The plates were incubated in an incubator in ambient air without supplemental CO2."}, "[2]": {"tested_on": "MMP2", "assay": "Zymogram of culture media from Matrigel invasion assay, MMP2", "type": "cell-based, Human", "method": "(§1) The media (25-30 μl) from Matrigel Invasion studies was applied to Novex zymogram gels (Invitrogen). The gel plates were developed and stained as recommended by the manufacturer. The matrix-metalloproteinases (MMPs) bands were identified on the basis of their known molecular weights.\n(§2) The media from various treatments in the Matrigel Invasion assay (Example 4) were applied to Novex Zymogram Gel (Invitrogen). The plates were developed and stained as recommended by the manufacturer. The matrix metalloproteinases (MMPs) bands were identified on the basis of their known molecular weights (FIG. 6)."}, "[3]": {"tested_on": "MMP9", "assay": "Zymogram of culture media from Matrigel invasion assay, MMP9", "type": "cell-based, Human", "details": "media of MDA MB 231 Matrigel invasion assay", "method": "as §1, §2"}, "[4]": {"tested_on": "Human Breast Cancer Cells MDA-MB 231", "assay": "Cell proliferation study (MTT stain), breast cancer cells", "details": "MDA-MB 231, 4 days", "quoted_text": "To study the effects of catechins and dietary composition on cell proliferation of human cancer cells, various human cancer cell lines were cultured in 24 well plates using the culture conditions specified by ATCC (supplier of cell lines). The cells were generally incubated for 3 to 4 days (before coalescence was reached). The total number of cells in a culture well was determined by staining the cells with vital stain (MTT) followed by the determination of OD of the stain solution. MTT only stain the dead cells and the amount of stain uptake correlates with the number of dead cells in the culture. Percent inhibition was calculated by comparing the OD of the treatment groups with the OD of the control groups. In these studies, 5×10^4 breast cancer cells (MDAMB 231) were seeded in each of the wells of 24-well plate. […] Plates were incubated in ambient air (without supplemental CO2) for a period of 4 days. At the end of the period, the culture media were withdrawn and the cells in each well were stained with MTT. Excess MTT stain was washed off. The MTT stained cancer cells were dissolved in 1 ml DMSO solution. The optical density (OD) of the solution was determined for each well. The OD for the well was directly proportional to the number of dead cells. The OD of the MTT stained cancer cells that were previously cultured in the absence of EGCGT was used as a reference and was considered as 100. Percent inhibition was calculated by using the formula: % Inhibition=(OD of Reference−OD of the Test Treatment)/OD of Reference×100%."}}, "data": [{"compound": "O=C(O[C@@H]1Cc2c(O)cc(O)cc2O[C@@H]1c1cc(O)c(O)c(O)c1)c1cc(O)c(O)c(O)c1", "note": "[EGCG, (−)-epigallocatechin-3-gallate]", "values": [{"measurement": "inhibition of Matrigel invasion", "setting": "[1]", "result": "~100", "unit": "%"}, {"measurement": "production of MMP2 (zymogram)", "setting": "[2]; EGCG 20 ug/ml, media of MDA MB 231 Matrigel invasion assay", "result": "reduced"}, {"measurement": "activity of MMP2 (zymogram)", "setting": "[2]; EGCG 50 μg/ml, media of MDA MB 231 Matrigel invasion assay", "result": "completely inhibited"}, {"measurement": "activity of MMP2 (zymogram)", "setting": "[2]; EGCG 100 ug/ml, media of MDA MB 231 Matrigel invasion assay", "result": "completely inhibited"}, {"measurement": "activity of MMP2 secreted by breast cancer cells (zymogram)", "setting": "[2]; FIG. 6 legend, concentration not given", "result": "decreases"}, {"measurement": "production of MMP9 (zymogram)", "setting": "[3]; EGCG 20 ug/ml", "result": "completely inhibited"}, {"measurement": "activity of MMP9 (zymogram)", "setting": "[3]; EGCG 50 μg/ml", "result": "completely inhibited"}, {"measurement": "activity of MMP9 (zymogram)", "setting": "[3]; EGCG 100 ug/ml", "result": "completely inhibited"}, {"measurement": "inhibition of cell proliferation", "setting": "[4]; EGCG 10 ug/ml", "result": "did not inhibit"}, {"measurement": "inhibition of cell proliferation", "setting": "[4]; EGCG 20 μg/ml alone", "result": 3, "unit": "%"}, {"measurement": "inhibition of cell proliferation", "setting": "[4]; EGCG 50 μg/ml", "result": 34, "unit": "%"}, {"measurement": "inhibition of cell proliferation", "setting": "[4]; EGCG 100 μg/ml", "result": 66, "unit": "%"}, {"measurement": "inhibition of cell proliferation", "setting": "[4]; EGCG 200 μg/ml", "result": 70, "unit": "%"}]}]}
